Measurements reported in patent US11603373B2, “TDO2 and IDO1 inhibitors” (Genentech, Inc., priority 2017, dated 2023).
pEC50: −log10 of the molar value.

Columns and labels:
[1] = molecular target: T1, IDO1 (A172+IFNg cells, high IDO expressing cells) (Homo sapiens, UniProt P14902); assay: NFK GreenScreen cell assay, inhibition of IDO in A172+IFNg cells; format: cell-based; conditions: read-out: IDO cell Fluor EC50
T1 construct: A172+IFNg cells (high IDO expressing cells); endogenous in cells; host or cells: A172 cells induced with 100 ng/ml IFNγ
Description: (§1) Cells are counted on a Vi-Cell (Beckman Coulter). […] The final DMSO concentration is 0.5%.

[2] = molecular target: T2, TDO2 (SW48 cells, high TDO expressing cells) (Homo sapiens, UniProt P48775); assay: NFK GreenScreen cell assay, inhibition of TDO in SW48 cells; format: cell-based; conditions: read-out: TDO2 Cell Fluor EC50
T2 construct: SW48 cells (high TDO expressing cells); endogenous in cells; host or cells: SW48 cells
Description: as §1

T2 sequence (P48775 whole entry): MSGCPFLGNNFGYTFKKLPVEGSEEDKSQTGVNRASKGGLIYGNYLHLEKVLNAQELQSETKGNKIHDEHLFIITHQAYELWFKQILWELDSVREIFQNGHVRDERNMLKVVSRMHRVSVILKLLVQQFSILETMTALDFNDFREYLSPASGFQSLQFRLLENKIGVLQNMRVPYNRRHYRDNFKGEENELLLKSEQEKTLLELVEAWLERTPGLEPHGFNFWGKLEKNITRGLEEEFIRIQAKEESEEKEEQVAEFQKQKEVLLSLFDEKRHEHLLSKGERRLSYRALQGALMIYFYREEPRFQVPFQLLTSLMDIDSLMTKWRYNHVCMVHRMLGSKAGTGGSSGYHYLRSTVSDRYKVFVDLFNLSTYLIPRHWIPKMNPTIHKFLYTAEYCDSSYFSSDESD
T1 sequence (P14902 whole entry): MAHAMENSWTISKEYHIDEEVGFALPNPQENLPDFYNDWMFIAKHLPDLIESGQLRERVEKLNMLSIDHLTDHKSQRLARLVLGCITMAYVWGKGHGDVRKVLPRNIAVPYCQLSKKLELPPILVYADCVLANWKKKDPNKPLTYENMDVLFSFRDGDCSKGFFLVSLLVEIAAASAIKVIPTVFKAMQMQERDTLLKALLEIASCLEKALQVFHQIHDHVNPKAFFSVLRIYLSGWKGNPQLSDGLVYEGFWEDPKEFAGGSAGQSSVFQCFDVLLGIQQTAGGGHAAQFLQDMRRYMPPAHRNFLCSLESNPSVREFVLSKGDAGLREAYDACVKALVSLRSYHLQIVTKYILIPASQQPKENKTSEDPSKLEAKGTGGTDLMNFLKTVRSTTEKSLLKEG

SMILES	pEC50 [1]	pEC50 [2]
CC(C)S(=O)(=O)N1CCC2(CC1)C[C@@H]([C@H]1c3ccccc3-c3cncn31)[C@H]2O [compound 29, 2-(5H-imidazo[1,5-b]isoindol-5-yl)-7-isopropylsulfonyl-7-azaspiro[3.5]nonan-3-ol]	7.23	6.62
COC(=O)N1CCC2(CC[C@H]([C@@H]3c4ccccc4-c4cncn43)[C@@H]2O)CC1 (single isomer, unassigned) [Example 9b]	6.89	7.00
CC(C)(C)OC(=O)N1[C@@H]2CC[C@H]1C[C@@]1(C[C@@H]([C@H]3c4ccccc4-c4cncn43)[C@@H]1O)C2 (single isomer, unassigned) [Example 12h]	5.15	4.89
CCC(=O)N1CCC2(CC1)CC(C1c3ccccc3-c3cncn31)C2O (stereo not drawn) [compound 49, 1-[3-hydroxy-2-(5H-imidazo[1,5-b]isoindol-5-yl)-7-azaspiro[3.5]nonan-7-yl]propan-1-one]	6.25	6.28
COCCOC(=O)N1CCC2(CC[C@@H]([C@H]3c4ccccc4-c4cncn43)[C@H]2O)CC1 (single isomer, unassigned) [Example 19]	7.00	7.03
O=C(C1CCOC1)N1CCC2(CC1)C[C@@H]([C@H]1c3ccccc3-c3cncn31)[C@H]2O (stereo partly drawn) [compound 46, [3-hydroxy-2-(5H-imidazo[1,5-b]isoindol-5-yl)-7-azaspiro[3.5]nonan-7-yl]-tetrahydrofuran-3-yl-methanone]	5.70	5.62
CC(C)(C)OC(=O)N1CCC2(CC[C@@H]([C@H]3c4ccccc4-c4cncn43)[C@H]2O)CC1 (single isomer, unassigned) [Example 2c]	7.29	6.97
O=C(c1cnn2c1OCCC2)N1CCC2(CC1)CC(C1c3ccccc3-c3cncn31)C2O (stereo not drawn) [compound 38, 6,7-dihydro-5H-pyrazolo[5,1-b][1,3]oxazin-3-yl-[3-hydroxy-2-(5H-imidazo[1,5-b]isoindol-5-yl)-7-azaspiro[3.5]nonan-7-yl]methanone]	6.20	5.64
CC(C(=O)N1CCC2(CC1)C[C@@H]([C@H]1c3ccccc3-c3cncn31)[C@H]2O)n1cncn1 (stereo partly drawn) [compound 41, 1-[3-hydroxy-2-(5H-imidazo[1,5-b]isoindol-5-yl)-7-azaspiro[3.5]nonan-7-yl]-2-(1,2,4-triazol-1-yl)propan-1-one]	5.82	5.47
N#CC1(C(=O)N2CCC3(CC2)C[C@@H]([C@H]2c4ccccc4-c4cncn42)[C@H]3O)CC1 [compound 61, 1-[3-hydroxy-2-(5H-imidazo[1,5-b]isoindol-5-yl)-7-azaspiro[3.5]nonan-7-carbonyl]cyclopropanecarbonitrile]	6.92	6.33
COCCC(=O)N1CCC2(CC1)C[C@@H]([C@H]1c3ccccc3-c3cncn31)[C@H]2O [compound 47, 1-[3-hydroxy-2-(5H-imidazo[1,5-b]isoindol-5-yl)-7-azaspiro[3.5]nonan-7-yl]-3-methoxy-propan-1-one]	6.07	6.07
CC(C)(C)OC(=O)N1CC2(CC[C@H]([C@@H]3c4ccccc4-c4cncn43)[C@@H]2O)C1 (single isomer, unassigned) [Example 3b]	5.96	7.14
CC(C)(C)OC(=O)N[C@H]1CC[C@]2(CC1)C[C@H]([C@H]1c3ccccc3-c3cncn31)[C@H]2O (single isomer, unassigned) [Example 24i]	6.02	6.59
CC(C)(C)OC(=O)N1CC2(CC[C@@H]([C@H]3c4ccccc4-c4cncn43)[C@@H]2O)C1 (single isomer, unassigned) [Example 3e]	5.15	4.85
NS(=O)(=O)N1CCC2(CC1)C[C@@H]([C@@H]1c3ccccc3-c3cncn31)[C@H]2O (single isomer, unassigned) [Example 11e]	5.17	4.92
CS(=O)(=O)N1CC2(CC(C3c4ccccc4-c4cncn43)C2O)C1 (stereo not drawn) [compound 5, 6-(5H-imidazo[1,5-b]isoindol-5-yl)-2-methylsulfonyl-2-azaspiro[3.3]heptan-7-ol]	6.34	6.64
N#CCS(=O)(=O)N1CCC2(CC1)C[C@@H]([C@H]1c3ccccc3-c3cncn31)[C@H]2O [Example 21b, (2S,3R)-2-[[3-hydroxy-2-((5S)-5H-imidazo[1,5-b]isoindol-5-yl)-7-azaspiro[3.5]nonan-7-yl]sulfonyl]acetonitrile]	7.12	7.00
CC(C)(C)OC(=O)N1[C@@H]2CC[C@H]1C[C@]1(C[C@H]([C@H]3c4ccccc4-c4cncn43)[C@@H]1O)C2 (single isomer, unassigned) [Example 12c]	5.72	6.28

SMILES	pEC50 [1]	pEC50 [2]
CC(=O)N1CCC(C(=O)N2CCC3(CC2)C[C@@H]([C@H]2c4ccccc4-c4cncn42)[C@H]3O)CC1 [compound 68, 1-[4-[3-hydroxy-2-(5H-imidazo[1,5-b]isoindol-5-yl)-7-azaspiro[3.5]nonane-7-carbonyl]-1-piperidyl]ethanone]	5.47	5.24
CC(C)(C)OC(=O)N1CC2CCC(C1)C21C[C@@H]([C@@H]2c3ccccc3-c3cncn32)[C@@H]1O (stereo partly drawn) [Example 22e, tert-butyl (2′S,3′S)-2′-hydroxy-3′-((R)-5H-imidazo[5,1-a]isoindol-5-yl)-3-azaspiro[bicyclo[3.2.1]octane-8,1′-cyclobutane]-3-carboxylate]	5.07	4.77
NS(=O)(=O)N1CCC2(CC[C@H]([C@@H]3c4ccccc4-c4cncn43)[C@@H]2O)CC1 (single isomer, unassigned) [Example 4d]	6.96	7.14
CC(C)(C)OC(=O)N[C@H]1CC[C@@]2(CC1)C[C@@H]([C@H]1c3ccccc3-c3cncn31)[C@@H]2O (single isomer, unassigned) [Example 24b]	5.89	5.68
CC(C)(C)OC(=O)N[C@H]1CC[C@@]2(CC1)C[C@H]([C@@H]1c3ccccc3-c3cncn31)[C@H]2O (single isomer, unassigned) [Example 24a]	5.36	5.16
CS(=O)(=O)N1CCC2(CC1)C[C@H]([C@@H]1c3ccccc3-c3cncn31)[C@@H]2O (single isomer, unassigned) [Example 6a]	5.23	6.40
CC(C)(C)OC(=O)N[C@H]1CC[C@]2(CC1)C[C@@H]([C@@H]1c3ccccc3-c3cncn31)[C@@H]2O (single isomer, unassigned) [Example 24h]	5.27	4.80
CC(C)(C)OC(=O)N1CC2(CC[C@H]([C@H]3c4ccccc4-c4cncn43)[C@@H]2O)C1 (single isomer, unassigned) [Example 3h]	6.70	5.92
O=S1(=O)CCC2(CC[C@H]([C@@H]3c4ccccc4-c4cncn43)[C@@H]2O)CC1 (single isomer, unassigned) [Example 13b]	5.14	5.48
CN(C)C(=O)CCC(=O)N1CCC2(CC1)CC(C1c3ccccc3-c3cncn31)C2O (stereo not drawn) [compound 50, 4-[3-hydroxy-2-(5H-imidazo[1,5-b]isoindol-5-yl)-7-azaspiro[3.5]nonan-7-yl]-N,N-dimethyl-4-oxo-butanamide]	5.82	5.89
Cc1cc(CC(=O)N2CCC3(CC2)C[C@@H]([C@H]2c4ccccc4-c4cncn42)[C@H]3O)no1 [compound 54, 1-[3-hydroxy-2-(5H-imidazo[1,5-b]isoindol-5-yl)-7-azaspiro[3.5]nonan-7-yl]-2-(5-methylisoxazol-3-yl)ethanone]	6.62	6.43
O=C(C1CCC1)N1CCC2(CC1)C[C@@H]([C@H]1c3ccccc3-c3cncn31)[C@H]2O [compound 48, cyclobutyl-[3-hydroxy-2-(5H-imidazo[1,5-b]isoindol-5-yl)-7-azaspiro[3.5]nonan-7-yl]methanone]	6.46	6.14
O=C(CCc1cccnc1)N1CCC2(CC1)CC(C1c3ccccc3-c3cncn31)C2O (stereo not drawn) [compound 33, 1-[3-hydroxy-2-(5H-imidazo[1,5-b]isoindol-5-yl)-7-azaspiro[3.5]nonan-7-yl]-3-(3-pyridyl)propan-1-one]	6.31	6.08
O=S(=O)(C1COC1)N1CCC2(CC1)C[C@@H]([C@H]1c3ccccc3-c3cncn31)[C@H]2O [Example 23c, (2S,3R)-2-[(5S)-5H-imidazo[1,5-b]isoindol-5-yl]-7-(oxetan-3-ylsulfonyl)-7-azaspiro[3.5]nonan-3-ol]	7.30	7.05
O=S(=O)(c1c[nH]cn1)N1CCC2(CCC(C3c4ccccc4-c4cncn43)C2O)CC1 (single isomer, unassigned) [compound 59, 8-((1H-imidazol-4-yl)sulfonyl)-2-(5H-imidazo[5,1-a]isoindol-5-yl)-8-azaspiro[4.5]decan-1-ol]	5.55	5.70
CC(C)(C)OC(=O)N1CC2CCC(C1)C21C[C@@H]([C@@H]2c3ccccc3-c3cncn32)[C@H]1O (stereo partly drawn) [Example 22d, tert-butyl (2′R,3′S)-2′-hydroxy-3′-((R)-5H-imidazo[5,1-a]isoindol-5-yl)-3-azaspiro[bicyclo[3.2.1]octane-8,1′-cyclobutane]-3-carboxylate]	5.85	6.36
CC(C)(C)OC(=O)N1[C@@H]2CC[C@H]1C[C@@]1(C[C@@H]([C@@H]3c4ccccc4-c4cncn43)[C@H]1O)C2 (single isomer, unassigned) [Example 12d]	5.37	5.01
CC(C)(C)OC(=O)N[C@H]1CC[C@@]2(CC1)C[C@H](C1c3ccccc3-c3cncn31)[C@H]2O (stereo partly drawn) [Example 24k, tert-butyl ((1S,2S,4s,7R)-1-hydroxy-2-((S)-5H-imidazo[5,1-a]isoindol-5-yl)spiro[3.5]nonan-7-yl)carbamate]	5.30	4.85
